Laboratory results as given in US12319655B2, “RAF kinase inhibitors and methods of use thereof” (Deciphera Pharmaceuticals, LLC, priority 2021, dated 2025).

Tests used:
[1] = molecular target: B-Raf kinase (SEQ. ID NO: 2) (Homo sapiens (Human), UniProt P15056); test: Biochemical Assay for B-Raf (1); conditions: Table J, assay version (1); read-out: BRAF (1) IC50
Procedure, shortened: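 Continuous PK/LDH-coupled NADH oxidation assay, A340 read for 6 h at 30° C., with 0.13 nM B-Raf, 30.1 nM MEK substrate and 1 mM ATP in Tris pH 7.5, MgCl2, DTT, detergents, 1% DMSO. Rate taken from 4–5 h window; percent inhibition vs no-compound and known-inhibitor controls; four-parameter fit gives IC50.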

[2] = molecular target: B-Raf (V600E) (SEQ. ID NO: 4) kinase (Homo sapiens (Human), UniProt P15056, V600E); test: Biochemical Assay for B-Raf (V600E) (1); conditions: Table J, BRAF V600E, assay version (1); read-out: BRAF VE (1) IC50
B-Raf (V600E) (SEQ. ID NO: 4) kinase, sequence (P15056 416-766 V600E): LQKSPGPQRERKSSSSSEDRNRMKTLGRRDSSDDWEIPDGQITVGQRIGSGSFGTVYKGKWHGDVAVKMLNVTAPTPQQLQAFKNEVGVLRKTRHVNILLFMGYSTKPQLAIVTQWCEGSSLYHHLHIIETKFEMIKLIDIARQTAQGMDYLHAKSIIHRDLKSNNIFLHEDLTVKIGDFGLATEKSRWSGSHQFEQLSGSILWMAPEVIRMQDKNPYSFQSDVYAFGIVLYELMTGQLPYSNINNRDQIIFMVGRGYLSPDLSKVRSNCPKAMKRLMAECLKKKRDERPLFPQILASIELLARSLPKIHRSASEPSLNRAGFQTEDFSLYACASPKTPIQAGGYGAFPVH
Procedure, shortened: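 Coupled pyruvate kinase/lactate dehydrogenase assay: 0.03 nM B-Raf V600E, 30.1 nM MEK, 1 mM ATP, pH 7.5 Tris/MgCl2 buffer, 1% DMSO. NADH oxidation followed at 340 nm for 6 h at 30 °C; rate from 3–4 h converted to percent inhibition, IC50 by four-parameter fit.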

[3] = system: Miapaca-2 cells; test: MiaPaca-2 Cell Proliferation Assay (1); assay type: cell-based; conditions: Homo sapiens, MIA PaCa-2, single agent, read-out: MiaPaca2 (1) IC50
Experimental: MiaPaca-2 Cell Proliferation Assay (1)
Miapaca-2 cells (catalog #CRL-1420) are obtained from the American Type Culture Collect (ATTC, Manassas, VA). Briefly, cells were grown in DMEM supplemented with 10% characterized fetal bovine serum (Invitrogen, Carlsbad, CA), 2.5% New Zealand sourced horse serum and 1% Penicillin/Streptomycin/L-Glutamine at 37° C., 5% CO2, and 95% humidity. Cells are expanded until reaching 70-95% confluency at which point they are sub-cultured or harvested for assay use. A serial dilution of test compound is dispensed into a 96-well black clear bottom plate in triplicate. Three thousand cells are added per well in 200 μL complete growth medium in the 96-well plate. Plates are incubated for 67-72 h at 37° C., 5% CO2, and 95% humidity. At the end of the incubation, 40 μL of a 440 μM solution of resazurin (Sigma, St. Louis, MO) in PBS is added to each well of the plate and plates are incubated for an additional 5-6 h at 37° C., 5% CO2, and 95% humidity. Plates are read on a Synergy2 or equivalent reader (Biotek, Winooski VT) using an excitation of 540 nm and an emission of 600 nm. Data is analyzed using Prism software (GraphPad, San Diego, CA) to calculate IC50 values.

B-Raf kinase (SEQ. ID NO: 2), sequence (P15056 416-766): as the sequence (P15056 416-766 V600E) above, with E185V counted along it

SMILES	IC50 [1] [nM]	IC50 [2] [nM]	IC50 [3] [nM]
CC(=O)Nc1cc(-c2cc(-c3cc(NC(=O)c4ccnc(C(F)(F)F)c4)c(F)cc3C)cc(C)n2)ccn1 [Example 4]	≤ 100	≤ 100	1000 to 10000
CC(=O)Nc1cc(-c2cc(-c3cc(NC(=O)c4ccnc(C(F)(F)F)c4)ccc3C)cc(C)n2)ccn1 [Example 5]	≤ 100	≤ 100	1000 to 10000
Cc1cc(F)c(NC(=O)c2ccnc(C(F)(F)F)c2)cc1-c1ccnc(-c2ccnc(NC(=O)CN(C)C)c2)c1 [Example 7]	≤ 100	≤ 100	1000 to 10000
CCOc1cc(-c2cc(NC(=O)c3ccnc(C(F)(F)F)c3)ccc2C)cc(-c2ccnc(NC(C)=O)c2)n1 [Example 8]	≤ 100	≤ 100	1000 to 10000
CC(=O)Nc1cc(-c2cc(-c3cc(NC(=O)c4ccnc(C(F)(F)F)c4)c(F)cc3C)cc(OC(C)C)n2)ccn1 [Example 10]	100 to 500	≤ 100	–
CC(=O)Nc1cc(-c2cc(-c3cc(NC(=O)c4ccnc(C(F)(F)F)c4)ccc3C)cc(=O)n2C)ccn1 [Example 11]	100 to 500	≤ 100	1000 to 10000
Cc1ncc(NC(=O)c2ccnc(C(F)(F)F)c2)cc1-c1cccc(-c2ccnc(N)c2)c1 [Example 94]	100 to 500	≤ 100	1000 to 10000
Cc1ncc(NC(=O)c2cccc(C(F)(F)F)c2)cc1-c1cccc(-c2ccnc(NC(=O)CC#N)c2)c1 [Example 97]	≤ 100	≤ 100	1000 to 10000
Cc1ccc(NC(=O)c2ccnc(C(F)(F)F)c2)cc1-c1cncc(-c2ccnc(NC(=O)CC#N)c2)n1 [Example 98]	≤ 100	≤ 100	1000 to 10000
COCC(=O)Nc1cc(-c2cncc(-c3cc(NC(=O)c4ccnc(C(F)(F)F)c4)ccc3C)n2)ccn1 [Example 99]	≤ 100	≤ 100	1000 to 10000
Cc1ccc(NC(=O)c2ccnc(C(F)(F)F)c2)cc1-c1cncc(-c2ccnc(NC(=O)CN(C)C)c2)n1 [Example 100]	≤ 100	≤ 100	1000 to 10000
Cc1ccc(NC(=O)c2ccnc(C(C)(C)C#N)c2)cc1-c1ccnc(-c2ccnc3c2CC(=O)N3)n1 [Example 101]	≤ 100	≤ 100	1000 to 10000
CC(=O)Nc1cc(-c2cc(-c3cc(NC(=O)c4ccnc(C(F)(F)F)c4)ccc3C)cn(CCO)c2=O)ccn1 [Example 102]	100 to 500	≤ 100	1000 to 10000
Cc1ncc(NC(=O)c2ccnc(C(C)(C)C#N)c2)cc1-c1cccc(-c2ccnc3c2CC(=O)N3)c1 [Example 105]	100 to 500	≤ 100	1000 to 10000
CNC(=O)c1cc(-c2cccc(-c3cc(NC(=O)c4ccnc(C(F)(F)F)c4)ccc3C)c2)ncn1 [Example 106]	100 to 500	≤ 100	1000 to 10000
CC(=O)Nc1cc(-c2nccc(-c3cc(NC(=O)c4ccnc(C(F)(F)F)c4)c(F)cc3C)n2)ccn1 [Example 107]	≤ 100	≤ 100	1000 to 10000
Cc1ccc(NC(=O)c2ccnc(C(C)(C)C#N)c2)cc1-c1cccc(-c2ncnc3c2CC(=O)N3)c1 [Example 109]	≤ 100	≤ 100	1000 to 10000
Cc1ncc(NC(=O)c2ccnc(C(C)(C)C#N)c2)cc1-c1cccc(-c2ncnc3c2CC(=O)N3)c1 [Example 110]	100 to 500	≤ 100	1000 to 10000
CC(=O)Nc1cc(-c2cc(-c3cc(NC(=O)c4ccnc(C(C)(C)C#N)c4)ccc3C)cn(C)c2=O)ccn1 [Example 113]	100 to 500	≤ 100	1000 to 10000
CC(=O)Nc1cc(-c2cccc(-c3cc(NC(=O)c4ccnc(C(F)(F)F)c4)c(F)cc3C)c2)ncn1 [Example 114]	≤ 100	≤ 100	1000 to 10000
Cc1ccc(NC(=O)c2ccnc(C(F)F)c2)cc1-c1cncc(-c2ccnc(NC(=O)C3CC3)c2)n1 [Example 117]	≤ 100	≤ 100	1000 to 10000
CC(=O)Nc1cc(-c2nccc(-c3cc(NC(=O)c4ccnc(C(C)(C)C#N)c4)ccc3C)n2)ccn1 [Example 118]	≤ 100	≤ 100	1000 to 10000

SMILES	IC50 [1] [nM]	IC50 [2] [nM]	IC50 [3] [nM]
COc1cc(C(=O)Nc2ccc(C)c(-c3cncc(-c4ccnc(NC(C)=O)c4)n3)c2)ccc1F [Example 120]	≤ 100	≤ 100	1000 to 10000
CC(=O)Nc1cc(-c2cncc(-c3cc(NC(=O)c4ccc(Cl)c(C(F)(F)F)c4)ccc3C)n2)ccn1 [Example 121]	≤ 100	≤ 100	1000 to 10000
Cc1ccc(NC(=O)c2ccnc(C(F)(F)F)c2)cc1-c1cncc(-c2ccnc(NC=O)c2)n1 [Example 123]	≤ 100	≤ 100	1000 to 10000
CNC(=O)c1cc(-c2cc(-c3cc(NC(=O)c4cccc(C(C)(C)C#N)c4)ccc3C)ccn2)ccn1 [Example 127]	≤ 100	≤ 100	1000 to 10000
CC(=O)Nc1nccc(-c2cccc(-c3cc(NC(=O)c4ccnc(C(F)(F)F)c4)ccc3C)c2)c1C#N [Example 132]	100 to 500	≤ 100	1000 to 10000
CNC(=O)c1cc(-c2cncc(-c3cc(NC(=O)c4cc(C(F)(F)F)ccn4)ccc3C)n2)ccn1 [Example 135]	≤ 100	≤ 100	1000 to 10000
CNC(=O)c1cc(-c2cncc(-c3cc(NC(=O)c4cccc(C(C)(C)C#N)c4)ccc3C)n2)ccn1 [Example 136]	≤ 100	≤ 100	1000 to 10000
CNC(=O)c1cc(-c2cncc(-c3cc(NC(=O)c4ccnc(C5(C#N)CC5)c4)ccc3C)n2)ccn1 [Example 138]	≤ 100	≤ 100	1000 to 10000
CNC(=O)c1cc(-c2cncc(-c3cc(NC(=O)c4ccnc(C5CC5)c4)ccc3C)n2)ccn1 [Example 139]	≤ 100	≤ 100	1000 to 10000
CC(=O)Nc1cc(-c2cncc(-c3cc(NC(=O)c4ccnc(C(C)(C)C#N)c4)ccc3C)n2)ccn1 [Example 140]	≤ 100	≤ 100	500 to 1000
Cc1ccc(NC(=O)c2ccnc(C(C)(C)C#N)c2)cc1-c1cncc(-c2ccnc(N)c2)n1 [Example 141]	100 to 500	≤ 100	1000 to 10000
COCC(=O)Nc1cc(-c2cncc(-c3cc(NC(=O)c4ccnc(C(C)(C)C#N)c4)ccc3C)n2)ccn1 [Example 142]	≤ 100	≤ 100	1000 to 10000
COCCNc1cc(-c2cncc(-c3cc(NC(=O)c4ccnc(C(C)(C)C#N)c4)ccc3C)n2)ccn1 [Example 143]	100 to 500	≤ 100	1000 to 10000
CC(=O)Nc1cc(-c2cncc(-c3cc(NC(=O)c4ccnc(C5CC5)c4)ccc3C)n2)ccn1 [Example 145]	≤ 100	≤ 100	1000 to 10000
CC(=O)Nc1cc(-c2cncc(-c3cc(NC(=O)c4ccnc(C5(C#N)CC5)c4)ccc3C)n2)ccn1 [Example 146]	≤ 100	≤ 100	1000 to 10000
Cc1ccc(NC(=O)c2ccnc(C(C)(C)C#N)c2)cc1-c1cncc(-c2ccnc(C(=O)NC3CC3)c2)n1 [Example 148]	100 to 500	≤ 100	1000 to 10000
CC(=O)Nc1cc(-c2nccc(-c3cc(NC(=O)c4cccc(C(C)(C)C#N)c4)ccc3C)n2)ccn1 [Example 150]	≤ 100	≤ 100	1000 to 10000
CC(=O)Nc1cc(-c2nccc(-c3cc(NC(=O)c4ccnc(C5(C#N)CC5)c4)ccc3C)n2)ccn1 [Example 151]	≤ 100	≤ 100	1000 to 10000
CC(=O)Nc1cc(-c2nccc(-c3cc(NC(=O)c4ccnc(C5CC5)c4)ccc3C)n2)ccn1 [Example 152]	≤ 100	≤ 100	1000 to 10000
CC(=O)Nc1cc(-c2nccc(-c3cc(NC(=O)c4cc(C(F)(F)F)ccn4)ccc3C)n2)ccn1 [Example 153]	≤ 100	≤ 100	1000 to 10000
Cc1ccc(NC(=O)c2ccnc(C(C)(C)C#N)c2)cc1-c1cncc(-c2ccnc(NC(=O)CC#N)c2)n1 [Example 154]	≤ 100	≤ 100	1000 to 10000
COCCNc1cc(-c2cccc(-c3cc(NC(=O)c4ccnc(C(F)(F)F)c4)ccc3C)c2)ncn1 [Example 156]	100 to 500	≤ 100	1000 to 10000
